Measured values taken from publication PMC5641942 (Physiological Reports, 2017).
Entries after “also recorded” stand apart in the source; their conditions may differ. Where two headings read alike, the source gives them in different places. Blank lines part the entries; values can stand above or below the compound they belong to.

Assays:
PAT1 and TauT = assay: Taurine (52 nmol/L) uptake in Caco-2 cells at pH 6.0 in the presence of amino acids; type: cell-based, human; conditions: pH 6.0, 0.052 μmol/L taurine
Experimental: (§5) After the 5 min incubation, the isotope‐containing buffer solution was removed and the wells were washed three times with 500 μL ice‐cold HEPES‐buffer, pH 7.4. The cells were detached using 200 μL of 0.1% Triton X‐100, and transferred to scintillation plastic vials and 2 mL of scintillation cocktail was added.

PAT1 [1] = molecular target: T1, PAT1 (Homo sapiens, UniProt Q7Z2H8); conditions: pH 6.0, 100 μmol/L taurine
T1 sequence (Q7Z2H8 whole entry): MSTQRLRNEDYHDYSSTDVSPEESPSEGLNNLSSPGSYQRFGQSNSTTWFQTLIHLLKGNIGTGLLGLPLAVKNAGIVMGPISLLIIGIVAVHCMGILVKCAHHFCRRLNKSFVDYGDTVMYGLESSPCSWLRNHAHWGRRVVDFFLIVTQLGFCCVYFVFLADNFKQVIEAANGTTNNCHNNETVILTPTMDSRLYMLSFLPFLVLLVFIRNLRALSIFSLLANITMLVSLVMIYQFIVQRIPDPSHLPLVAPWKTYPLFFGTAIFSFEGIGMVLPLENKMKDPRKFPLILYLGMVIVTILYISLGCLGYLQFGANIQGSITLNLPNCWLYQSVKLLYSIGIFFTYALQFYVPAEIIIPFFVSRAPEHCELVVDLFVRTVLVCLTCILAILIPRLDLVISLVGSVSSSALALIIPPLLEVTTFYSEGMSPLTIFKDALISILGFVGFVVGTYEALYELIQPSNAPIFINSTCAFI
Experimental: as §5

TauT [2] = molecular target: T2, TauT (Homo sapiens, UniProt P31641); assay: Taurine (52 nmol/L) uptake in Caco-2 cells at pH 7.4 in the presence of amino acids; type: cell-based; design: endogenous in cells; host or cells: Caco-2; conditions: pH 7.4, 0.052 μmol/L taurine
T2 sequence (P31641 1-620): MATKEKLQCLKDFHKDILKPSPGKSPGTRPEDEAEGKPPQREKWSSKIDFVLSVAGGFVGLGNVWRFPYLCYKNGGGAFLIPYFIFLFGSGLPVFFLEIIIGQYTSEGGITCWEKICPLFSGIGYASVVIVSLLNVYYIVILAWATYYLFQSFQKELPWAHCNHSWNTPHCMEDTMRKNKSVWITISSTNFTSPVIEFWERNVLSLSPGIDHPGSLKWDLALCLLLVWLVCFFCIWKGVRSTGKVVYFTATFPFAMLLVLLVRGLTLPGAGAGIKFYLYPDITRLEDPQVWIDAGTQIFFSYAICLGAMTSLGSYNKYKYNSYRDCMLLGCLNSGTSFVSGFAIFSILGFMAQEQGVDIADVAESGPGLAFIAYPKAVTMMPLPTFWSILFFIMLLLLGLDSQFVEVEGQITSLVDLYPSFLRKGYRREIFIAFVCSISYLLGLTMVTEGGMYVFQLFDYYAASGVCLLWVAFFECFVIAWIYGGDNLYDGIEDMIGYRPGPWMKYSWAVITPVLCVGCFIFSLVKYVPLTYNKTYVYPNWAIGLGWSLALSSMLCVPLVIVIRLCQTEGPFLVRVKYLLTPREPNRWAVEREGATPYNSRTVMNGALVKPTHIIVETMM
Text: […]. […] […].

PAT1 [3] = molecular target: T3, PAT1 (Rattus norvegicus, UniProt Q924A5); assay: Oral taurine pharmacokinetics with co-administered BCH or Pro and Sar; type: in vivo, male Sprague-Dawley rats; conditions: oral 30 mg/kg taurine, 200 mg/kg BCH
T3 construct: tissue Charles River Deutschland; host or cells: intestine of living male Sprague-Dawley rats (oral dosing)
T3 sequence (Q924A5 whole entry): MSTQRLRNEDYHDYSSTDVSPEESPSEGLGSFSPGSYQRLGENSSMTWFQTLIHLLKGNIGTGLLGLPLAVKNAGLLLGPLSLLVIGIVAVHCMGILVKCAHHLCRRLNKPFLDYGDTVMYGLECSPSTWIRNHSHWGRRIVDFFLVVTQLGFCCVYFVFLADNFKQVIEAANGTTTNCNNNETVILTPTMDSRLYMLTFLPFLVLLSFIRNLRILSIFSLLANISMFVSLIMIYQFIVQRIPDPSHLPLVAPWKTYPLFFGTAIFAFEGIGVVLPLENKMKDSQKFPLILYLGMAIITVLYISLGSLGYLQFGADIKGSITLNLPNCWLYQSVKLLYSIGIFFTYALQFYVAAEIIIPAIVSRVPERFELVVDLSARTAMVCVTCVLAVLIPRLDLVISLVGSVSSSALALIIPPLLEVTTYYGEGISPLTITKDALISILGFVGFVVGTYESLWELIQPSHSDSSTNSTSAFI
Experimental: (§1) The pH was adjusted with NaOH or HCl to 7.40 ± 0.05.
(§2) The animals were acclimatized for a minimum of 5 days in groups of two and maintained on standard feed with free access to water. Prior to dosing, the animals were fasted for 16–20 h with free access to water.
(§3) Plasma was harvested immediately by 10 min of centrifugation at 4°C, 3600g (Multifuge 1 S‐R, Heraeus, Hanau, Germany) and stored in polypropylene tubes (Pony Vial, PerkinElmer, Waltham, MA, USA) at −20°C until analysed. At the end of the experiment, animals were sacrificed by spinal dislocation using a guillotine. Plasma samples were left to defrost and mixed with 4 mL of liquid scintillation cocktail. The samples were counted for 3 min on a scintillation counter from Tri‐Carb 2900TR.
Based on this V d1, volume of distribution in the central compartment 1; V d2, volume of distribution in the peripheral compartment 2; AUC, area under the curve; and K10, the elimination rate from the central department, were calculated using Phoenix® 6.3 version (Pharsight Corporation, A Certara Company, USA). […] C max and t max were found as mean values of the plasma concentration profiles within each group. […] The total clearance was calculated as dose divided by AUC.

PAT1 [4] = molecular target: T1, PAT1; conditions: donor pH 6.0, 100 μmol/L taurine, 20 mg/mL test substance
TauT [5] = molecular target: T2, TauT; conditions: pH 7.4/7.4, 0.052 μmol/L taurine, 20 mg/mL test substance
[6] = Intravenous taurine pharmacokinetics in rats; type: in vivo, male Sprague-Dawley rats; conditions: for A / B / α / β: two-compartment model; for clearance / AUC(0-inf): male, Sprague-Dawley, rat, plasma; for clearance: iv
Experimental: as §1, §2, §3
(§4) Based on this V d1, volume of distribution in the central compartment 1; V d2, volume of distribution in the peripheral compartment 2; AUC, area under the curve; and K10, the elimination rate from the central department, were calculated using Phoenix® 6.3 version (Pharsight Corporation, A Certara Company, USA). […] C max and t max were found as mean values of the plasma concentration profiles within each group. Area under the plasma concentration versus time profiles (AUC), an expression of total exposure, were determined with noncompartmental analysis using the linear trapezoidal rule from time zero to C max and by log linear methods from C max to the last measured plasma concentration and denoted AUC0‐tlast, k e is the first order elimination rate constant calculated as the slope from the terminal log plasma concentration time curve of individual animals. The total clearance was calculated as dose divided by AUC.

[7] = Oral taurine pharmacokinetics in rats; type: in vivo, male Sprague-Dawley rats; conditions: for AUC: read-out: AUC0‐tlast (converted); for k el: read-out: k e (converted)
Experimental: as §1, §2, §3, §4

TauT [8] = molecular target: T2, TauT; conditions: pH 6.0, 52 nmol/L taurine
[9] = Oral taurine pharmacokinetics in rats; type: in vivo; conditions: male, Sprague-Dawley, rat, plasma, median [Q1, Q3]
[10] = design: method as in Yu et al. 2013; conditions: beagle dogs, noncompartmental analysis; ref Yu et al. 2013; cited from earlier work
[11] = design: method as in Sved et al. (2007); conditions: male Sprague-Dawley rats, ref Sved et al. (2007), cited from earlier work
TauT [12] = molecular target: T2, TauT; assay: Concentration-dependent taurine uptake in Caco-2 cells at pH 7.4; type: in vitro ADME; design: endogenous in cells; host or cells: Caco-2; conditions: for K m of saturable taurine uptake: Caco-2, pH 7.4, 0.052–100 μmol/L taurine, 5 min
Experimental: Polycarbonate membranes (1.12 cm^2, 0.4 μm pore size) of TranswellTM inserts or 24-well cell culture plates (1.90 cm^2) were used as supports for cell cultivation. […] Experiments were performed 6 days after seeding the Caco-2 cells cultured on 24 wells plates or performed 13-15 days postseeding cells on TranswellTM insert. […] The culture medium was changed every 2-3 days. […] HBSS buffer consisted of in mM: […] KCl, 5.33; […] NaCl, 138; […] Nohr et al. 2014b).

[13] = male, Sprague-Dawley, rat, plasma, oral 10 mg/kg
[14] = male, Sprague-Dawley, rat, plasma, oral 30 mg/kg
[15] = male, Sprague-Dawley, rat, plasma, oral 100 mg/kg
[16] = male, Sprague-Dawley, rat, plasma, oral 299 mg/kg
[17] = male, Sprague-Dawley, rat, plasma, oral 997 mg/kg

SMILES: O=C(O)Cc1c[nH]cn1 [IAA, imidazole‐4‐acetic acid]
effect on taurine uptake (PAT1 and TauT; 10 mmol/L test substance): significantly inhibited
effect on taurine uptake (PAT1 [1]; 10 mmol/L test substance): not affected significantly
effect on taurine uptake (TauT [2]; 10 mmol/L test substance): significantly inhibited
taurine uptake (TauT [2]; 10 mmol/L test substance): approximately 10 % of the control uptake

SMILES: NCCS(=O)(=O)O [Taurine, 2‐aminoethane sulfonic acid]
AUC0‐∞/dose ([6]; IV 1 mg/kg): 89 ± 18.9 μg·min/mL pr. mg/kg
K10 ([6]; IV 1 mg/kg): 0.04 ± 0.01 min⁻¹
V d1 ([6]; IV 1 mg/kg): 0.299 ± 0.048 L/kg
V d2 ([6]; IV 1 mg/kg): 4.608 ± 0.974 L/kg
A ([6]; IV 1 mg/kg): 3.5 ± 0.5 µg/mL
B ([6]; IV 1 mg/kg): 0.12 ± 0.03 µg/mL
α ([6]; IV 1 mg/kg): 0.14 ± 0.02 min⁻¹
β ([6]; IV 1 mg/kg): 1.9 ± 0.4 1/min *10^−3
AUC0‐∞/dose ([6]; IV 10 mg/kg): 59 ± 19.0 μg·min/mL pr. mg/kg
K10 ([6]; IV 10 mg/kg): 0.06 ± 0.01 min⁻¹
V d1 ([6]; IV 10 mg/kg): 0.353 ± 0.062 L/kg
V d2 ([6]; IV 10 mg/kg): 4.662 ± 1.153 L/kg
A ([6]; IV 10 mg/kg): 31.0 ± 4.2 µg/mL
B ([6]; IV 10 mg/kg): 0.89 ± 0.14 µg/mL
α ([6]; IV 10 mg/kg): 0.144 ± 0.03 min⁻¹
β ([6]; IV 10 mg/kg): 3.0 ± 0.9 1/min *10^−3
AUC0‐∞/dose ([6]; IV 30 mg/kg): 115 ± 39.2 μg·min/mL pr. mg/kg
K10 ([6]; IV 30 mg/kg): 0.03 ± 0.01 min⁻¹
V d1 ([6]; IV 30 mg/kg): 0.323 ± 0.063 L/kg
V d2 ([6]; IV 30 mg/kg): 8.374 ± 4.466 L/kg
B ([6]; IV 30 mg/kg): 1.87 ± 0.45 µg/mL
α ([6]; IV 30 mg/kg): 0.07 ± 0.01 min⁻¹
β ([6]; IV 30 mg/kg): 1.3 ± 0.6 1/min *10^−3
clearance ([6]; 1 mg/kg, IV 1 mg/kg, read-out: CL): 11.7 ± 1.3 mL/min/kg
clearance ([6]; 10 mg/kg, IV 10 mg/kg, read-out: CL): 18.7 ± 2.54 mL/min/kg
clearance ([6]; 30 mg/kg, IV 30 mg/kg, read-out: CL): 9.4 ± 1.42 mL/min/kg
clearance ([6]; IV 1–30 mg/kg, compartmental analysis, read-out: clearance): 9 to 18 mL/min/kg
AUC(0-inf) ([6]; IV 1 mg/kg): 1.48 µg·h/mL
AUC(0-inf) ([6]; IV 10 mg/kg): 9.78 µg·h/mL
AUC(0-inf) ([6]; IV 30 mg/kg): 57.5 µg·h/mL
Cmax [7, 13]: 2 ± 0.2 µg/mL
AUC [7, 13]: 3.55 µg·h/mL
k el [7, 13]: 6.67e-05 s⁻¹
Cmax [7, 14]: 15.7 ± 2.4 µg/mL
AUC [7, 14]: 18.6 µg·h/mL
k el [7, 14]: 0.000117 s⁻¹
Cmax [7, 15]: 70 ± 6.5 µg/mL
AUC [7, 15]: 89.9 µg·h/mL
k el [7, 15]: 0.000167 s⁻¹
Cmax [7, 16]: 228 ± 16 µg/mL
AUC [7, 16]: 307 µg·h/mL
k el [7, 16]: 0.000167 s⁻¹
Cmax [7, 17]: 643 ± 81 µg/mL
Tmax ([7]; male, Sprague-Dawley, rat, plasma, oral 997 mg/kg, median [Q1, Q3]): 45 min
AUC [7, 17]: 1320 µg·h/mL
k el [7, 17]: 0.00015 s⁻¹
AUC0‐∞/dose ([7]; oral 10 mg/kg): 21 ± 1.3 μg·min/mL pr. mg/kg
AUC0‐∞/dose ([7]; oral 30 mg/kg): 37 ± 4.5 μg·min/mL pr. mg/kg
AUC0‐∞/dose ([7]; oral 100 mg/kg): 54 ± 6.0 μg·min/mL pr. mg/kg
AUC0‐∞/dose ([7]; oral 299 mg/kg): 62 ± 6.7 μg·min/mL pr. mg/kg
AUC0‐∞/dose ([7]; oral 997 mg/kg): 79 ± 6.7 μg·min/mL pr. mg/kg
TauT share of carrier mediated taurine uptake (TauT [8]): 78%
Tmax ([9]; oral 100 mg/kg): 30 min
Tmax ([9]; oral 299 mg/kg): 30 min
clearance [10]: 3.33 mL/min/kg
AUC ([11]; oral 30 mg/kg): 236 µg·h/mL
AUC ([11]; oral 300 mg/kg): 1760 µg·h/mL
V max of saturable taurine uptake (TauT [12]; Caco-2, pH 7.4): 4.6 ± 0.8 pmol/(cm^2·min)
nonsaturable component, B (TauT [12]; Caco-2, pH 7.4): 5.7e-08 ± 8e-09 cm/min
K m of saturable taurine uptake (TauT [12]): 5.6 µM
K m of saturable taurine uptake (TauT [12]; listed as taurine): 5.6 ± 2.6 µM

SMILES: CNCC(=O)O [Sar, sarcosine]
effect on taurine uptake (TauT [2]; 10 mmol/L test substance): not affected
effect on taurine uptake (TauT [2]; 20 mg/mL test substance): decreased
effect on absorptive (A-B) permeability of taurine (TauT [5]): did not significantly decrease

More lines, main results first:

effect on taurine uptake (PAT1 [1]; 10 mmol/L test substance): not affected significantly
effect on taurine uptake (PAT1 [1]; 20 mg/mL test substance): did not affect
effect on absorptive (A-B) permeability of taurine (PAT1 [4]): did not alter
effect on taurine uptake (TauT [2]; 10 mmol/L test substance): not affected
effect on absorptive (A-B) permeability of taurine (TauT [5]): did not significantly decrease
SMILES: NC1(C(=O)O)CC2CCC1C2 (stereo not drawn) [BCH, 2‐Amino‐2‐norbornanecarboxylic acid]
effect on taurine uptake (PAT1 and TauT; 10 mmol/L test substance): not affected
effect on taurine uptake (PAT1 and TauT; 20 mg/mL test substance): did not affect
effect on taurine plasma concentration versus time profile (AUC0‐tlast, t max, C max) (PAT1 [3]): similar; also recorded: did not have any significant effect

effect on taurine uptake (TauT [2]; 10 mmol/L test substance): not affected
effect on absorptive (A-B) permeability of taurine (TauT [5]): did not significantly decrease
SMILES: O=C(O)[C@@H]1CCCN1 [Pro, L‐proline]
